Results as given in patent publication US8129123B2, “Methods for assessing atherogenesis by determining oxidized phospholipid to apolipoprotein B ratios” (The Regents of the University of California, priority 2004, dated 2012).
Like-named read-outs stand apart in the source and are kept apart here.

Experiments:
[1] = MIRACL trial: primary efficacy measure (recurrent ischemic events) over 16 weeks; format: in vivo, human; conditions: 2442 patients with baseline data, 16-week follow-up
Procedure: (§1) The MIRACL study design was previously published. Briefly, the study recruited 3086 patients with unstable angina or non-Q-wave acute myocardial infarction between 24-96 hours after hospital admission at 122 centers in 19 countries. Patients were randomly assigned to double-blind treatment with atorvastatin 80 mg/day or placebo for 16 weeks. The primary efficacy measure was the time to first occurrence of death, nonfatal acute myocardial infarction, cardiac arrest with resuscitation, or worsening angina with new objective evidence of ischemia and requiring emergency re-hospitalization. […] Patients were analyzed on an intention-to-treat basis.
(§2) Since the baseline and Week 16 distributions of the OxLDL markers were positively skewed, log-transformed values were used in the statistical models and analyses and antilog-transformed for descriptive statistics yielding geometric means and 95% confidence intervals (CI) for baseline, Week 16 and percent change from baseline to Week 16. […] For each marker, the logistic regression model included terms for log-transformed marker and randomized treatment assignment; odds ratios were expressed as the relative odds for each one unit increase in the log-transformed marker. Pearson correlations were calculated to summarize the relationship between OxPL/apoB and Lp(a) at baseline and at Week 16. […]

[2] = tested on: oxidized phospholipids (OxPL) on apoB-100 particles; experiment: OxLDL-E06 chemiluminescent ELISA (OxPL/apoB and Total apoB-OxPL) in plasma; format: in vivo, human
Procedure: (§3) The MIRACL study design was previously published. Briefly, the study recruited 3086 patients with unstable angina or non-Q-wave acute myocardial infarction between 24-96 hours after hospital admission at 122 centers in 19 countries. Patients were randomly assigned to double-blind treatment with atorvastatin 80 mg/day or placebo for 16 weeks. The primary efficacy measure was the time to first occurrence of death, nonfatal acute myocardial infarction, cardiac arrest with resuscitation, or worsening angina with new objective evidence of ischemia and requiring emergency re-hospitalization. 2739 patients completed the entire 16 week follow-up period, of whom 2442 had baseline blood samples and 2341 had baseline and Week 16 blood samples available for analysis. Blood was collected in EDTA and stored at −70° C. until analysis. Patients were analyzed on an intention-to-treat basis.
(§4) Chemiluminescent ELISA was used to measure OxLDL markers (FIG. 1A-1C). All samples for a given assay were run in a single assay and internal controls consisting of high and low standard plasma samples were included to detect potential variations between microtitration plates. Each sample was assayed in triplicate and data are expressed as relative light units (RLU) in 100 milliseconds. The intra-assay coefficients of variation for all assays were 6-10%.
OxLDL-E06 is a measure of the content of oxidized phospholipids (OxPL) per apoB-100 particle using the murine monoclonal antibody E06, which specifically binds to the phosphorylcholine head group of oxidized but not native phospholipids. A 1:50 dilution of plasma in phosphate-buffered saline (PBS) is added to microtiter wells coated with the monoclonal antibody MB47 (5 μg/ml), which specifically binds apoB-100 particles. Under these conditions, a saturating amount of apoB-100 is added to each well and consequently an equal number of apoB-100 particles are captured in each well for all assays. The content of OxPL per apoB-100 is then determined with biotinylated E06. In a previous study we directly measured the amount of apoB-100 bound in each well by the degree of binding of a biotinylated anti-apoB-100 antibody, and compared the OxPL RLU values alone to the ratio of OxPL RLU/apoB-100 RLU and found a correlation of r^2=0.99 (n=1500 samples). Therefore, we arbitrarily assigned the apoB-100 RLU value in the denominator as 1 and report the OxPL/apoB values as OxPL RLU counts only. Note that by design, this assay normalizes the OxPL content per apoB-100 particle and is therefore independent of plasma apoB-100 (and thus LDL-cholesterol) levels.
(§5) The data for OxLDL-E06 and apoB-IC are presented in two ways: 1) as OxPL/apoB and IC/apoB, which specifically quantifies the content of OxPL and IC, respectively, on each captured apoB-100 particle, and 2) as Total apoB-OxPL and Total apoB-IC, which reflects the OxPL and IC content on all apoB-100 containing particles in plasma, by multiplying the plasma “OxPL/apoB” and “IC/apoB” value by the plasma apoB-100 levels measured independently as noted below.
Since the baseline and Week 16 distributions of the OxLDL markers were positively skewed, log-transformed values were used in the statistical models and analyses and antilog-transformed for descriptive statistics yielding geometric means and 95% confidence intervals (CI) for baseline, Week 16 and percent change from baseline to Week 16. […]

[3] = tested on: apoB-100 immune complexes; experiment: Apolipoprotein B-100 immune complexes (IC/apoB and Total apoB-IC, IgG and IgM) chemiluminescent ELISA in plasma; format: in vivo, human
Procedure: as §3, §4, §5
(§6) Plasma titers of IgG and IgM apoB-IC and malondialdehyde (MDA-LDL) (1:200 plasma dilution) autoantibodies and apoB-IC were measured as previously described.
Since the baseline and Week 16 distributions of the OxLDL markers were positively skewed, log-transformed values were used in the statistical models and analyses and antilog-transformed for descriptive statistics yielding geometric means and 95% confidence intervals (CI) for baseline, Week 16 and percent change from baseline to Week 16. Inferential analyses included paired-sample t-tests for within treatment group differences in markers at baseline versus Week 16, and independent-sample t-tests for between treatment group differences in markers at Week 16 and between treatment group differences in absolute change in log-transformed markers from baseline to Week 16. Logistic regression models were constructed to summarize the relationships between baseline OxLDL values and the primary efficacy measure of the trial. For each marker, the logistic regression model included terms for log-transformed marker and randomized treatment assignment; odds ratios were expressed as the relative odds for each one unit increase in the log-transformed marker. Pearson correlations were calculated to summarize the relationship between OxPL/apoB and Lp(a) at baseline and at Week 16. Statistical significance was defined as P<0.05.

MDA-LDL autoantibodies = experiment: Autoantibodies to MDA-LDL (IgG and IgM) chemiluminescent ELISA in plasma; format: in vivo, human
Procedure: as §3
Chemiluminescent ELISA was used to measure OxLDL markers (FIG. 1A-1C). […] Each sample was assayed in triplicate and data are expressed as relative light units (RLU) in 100 milliseconds. […]
as §6, §2

Lp(a) = experiment: Plasma Lp(a) level, chemiluminescent ELISA with antibody LPA4; format: in vivo, human
Procedure: as §1
(§7) Plasma Lp(a) levels were measured by a chemiluminescent ELISA with monoclonal antibody LPA4, as previously described. […] ApoB-100 levels were measured by a commercially available kit (Behring) and CRP levels as previously described.
(§8) Since the baseline and Week 16 distributions of the OxLDL markers were positively skewed, log-transformed values were used in the statistical models and analyses and antilog-transformed for descriptive statistics yielding geometric means and 95% confidence intervals (CI) for baseline, Week 16 and percent change from baseline to Week 16. […] Pearson correlations were calculated to summarize the relationship between OxPL/apoB and Lp(a) at baseline and at Week 16. […]

ApoB-100 = experiment: Plasma apoB-100 level (Behring kit); format: in vivo, human
Procedure: as §1, §7, §8

LDL cholesterol [4] = experiment: Plasma LDL cholesterol in MIRACL patients; format: in vivo, human
Procedure: as §3, with “MIRACL” left out, “-70°” for “−70°”

[5] = entire MIRACL population, 16 weeks; cited from earlier work
LDL cholesterol [6] = conditions: PROVE-IT, two years' treatment, 80 mg atorvastatin versus 40 mg pravastatin; cited from earlier work
[7] = Week 16, atorvastatin 80 mg/day, ACS patients, geometric mean

In the case of CC(C)c1c(C(=O)Nc2ccccc2)c(-c2ccccc2)c(-c2ccc(F)cc2)n1CC[C@@H](O)C[C@@H](O)CC(=O)O [atorvastatin], the “patients with a primary endpoint event” value [1] is reported as 10.7%, the OxPL/apoB mean level [2, 7] is reported as 11048 RLU and the “Total apoB-OxPL mean level” value [2, 7] is reported as 912 (RLU · mg/dl) × 10^3. For the same compound, the “OxPL/apoB relative increase from baseline” value ([2]; baseline to Week 16, 80 mg/day) was 9.5%, the “Total apoB-OxPL percent change from baseline” value ([2]; baseline to Week 16, 80 mg/day) was −29.7% and the “OxPL enrichment of apoB particles (OxPL/apoB), absolute difference compared to placebo” value ([2]; baseline to Week 16 change, atorvastatin vs placebo) was 13.4%. The “IC/apoB IgG mean level” value [3, 7] was 9048 RLU, the “IC/apoB IgM mean level” value [3, 7] was 3933 RLU and the “Total apoB-IC IgG mean level” value [3, 7] was 749 (RLU · mg/dl) × 10^3. For the same compound, the “Total apoB-IC IgM mean level” value [3, 7] was 325 (RLU · mg/dl) × 10^3, the “IgG IC/apoB relative increase from baseline” value ([3]; baseline to Week 16, 80 mg/day) was 9.6% and the “IgM IC/apoB relative increase from baseline” value ([3]; baseline to Week 16, 80 mg/day) was 15.4%. The “Total apoB-IC IgG percent change from baseline” value ([3]; baseline to Week 16, 80 mg/day) was −29.5%, the “Total apoB-IC IgM percent change from baseline” value ([3]; baseline to Week 16, 80 mg/day) was −25.7% and the “Autoantibodies to MDA-LDL IgG mean level” value (MDA-LDL autoantibodies; [7]) was 4922 RLU. The “Autoantibodies to MDA-LDL IgM mean level” value (MDA-LDL autoantibodies; [7]) was 1088 RLU, the “IgG and IgM MDA-LDL autoantibody level increase” value (MDA-LDL autoantibodies; baseline to Week 16, range stated for both groups (atorvastatin and placebo)) was 9.1-14.4% and the “Lp(a) mean level” value (Lp(a); [7]) was 13.0 mg/dL. The “Lp(a) relative increase from baseline” value (Lp(a); baseline to Week 16, 80 mg/day) was 8.8%, the ApoB-100 mean level (ApoB-100; [7]) was 87 mg/dL and the “apoB-100 percent change from baseline” value (ApoB-100; baseline to Week 16, 80 mg/day) was −33.0%. For the same compound, the “LDL cholesterol level after treatment” value (LDL cholesterol [4]; Week 16 (from 124±34 at baseline), 80 mg/day) was 72 ± 35 mg/dL, the “reduction in LDL cholesterol” value (LDL cholesterol [4]; baseline to Week 16, 80 mg/day) was 42% and the “patients with a primary endpoint event” value [5] was 14.6%. The “median LDL cholesterol level” value (LDL cholesterol [6]) was 62 mg/dL.
